Source: US8815858B2, “Heterocyclic flaviviridae virus inhibitors” (Gilead Sciences, Inc., priority 2010, dated 2014)

Each compound was assayed on HCV replicon (1B Replicon) (assay: HCV replicon assay, inhibition of viral replication (luciferase)). Details: Hepatitis C virus, 72 h; 10 uM compound; human hepatoma Huh-7 HCV replicon cells; 3 days incubation; luminescence; read-out: % inh at 10 uM (1B Replicon).
Type: cell-based
Protocol: The anti-HCV activity of the compounds of this invention was tested in a human hepatoma Huh-7 cell line harboring a HCV replicon. The assay comprised the following steps:
Serial dilution was performed in 100% DMSO in a 384-well plate. A solution containing a compound at 225-fold concentration of the starting final serial dilution concentration was prepared in 100% DMSO and 15 uL added to the pre-specified wells in column 3 or 13 of a polypropylene 384-well plate. The rest of the 384-well plate was filled with 10 uL 100% DMSO except for columns 23 and 24, where 10 uL of 500 uM a HCV protease inhibitor (ITMN-191) in 100% DMSO was added. The HCV protease inhibitor was used a control of 100% inhibition of HCV replication. The plate was then placed on a Biomek FX Workstation to start the serial dilution. The serial dilution was performed for ten cycles of 3-fold dilution from column 3 to 12 or from column 13 to 22.
To each well of a black polypropylene 384-well plate, 90 μL of cell media containing 1600 suspended Huh-7 HCV replicon cells was added with a Biotek uFlow Workstation. A volume of 0.4 μL of the compound solution was transferred from the serial dilution plate to the cell culture plate on a Biomek FX Workstation. The DMSO concentration in the final assay condition was 0.44%. The plates were incubated for 3 days at 37° C. with 5% CO2 and 85% humidity.
b) Assessment of inhibition of viral replication: The calcein-PBS solution in the 384-well cell culture plate was aspirated with a Biotek EL405 plate-washer. A volume of 20 μL of Dual-Glo luciferase buffer (Promega, Dual-Glo Luciferase Assay Reagent, cat. #E298B) was added to each well of the plate with a Biotek uFlow Workstation. The plate was incubated for 10 minutes at room temperature. A volume of 20 μL of a solution containing 1:100 mixture of Dual-Glo Stop & Glo substrate (Promega, Dual-Glo Luciferase Assay Reagent, cat. #E313B) and Dual-Glo Stop & Glo buffer (Promega, Dual-Glo Luciferase Assay Reagent, cat. #E314B) was then added to each well of the plate with a Biotek uFlow Workstation. The plate was incubated at room temperature for 10 minutes before the luminescence signal was measured with a Perkin Elmer Envision Plate Reader.
The percent cytotoxicity was determined by calcein AM conversion to fluorescent product. The average fluorescent signal from the DMSO control wells were defined as 100% nontoxic. The individual fluorescent signal from testing compound treated well was divided by the average signal from DMSO control wells and then multiplied by 100% to get the percent viability. The percent anti-HCV replication activity was determined by the luminescence signal from the testing well compared to DMSO controls wells. The background signal was determined by the average luminescence signal from the HCV protease inhibitor treated wells and was subtracted from the signal from the testing wells as well as the DMSO control wells. Following 3-fold serial dilutions, the EC50 and CC50 values were calculated by fitting % inhibition at each concentration to the following equation: % inhibition=100%/[(EC50/[I])^b+1]
% inhibition values at any specific concentration, for example 10 μM, can also be derived from the formula above.

SMILES | inhibition at 10 µM [%]
Fc1ccccc1-c1cc2ncn(Cc3cc(-c4ccc(C(F)(F)F)cc4C(F)(F)F)no3)cc-2n1 | 99.6
Fc1ccccc1-c1cc2ncn(Cc3nnc(-c4ccc(C(F)(F)F)cc4C(F)(F)F)s3)cc-2n1 | 100
COc1ccc(-c2nnc(Cn3cnc4cc(-c5ccccc5F)nc-4c3)s2)c(C(F)(F)F)c1 | 100
Fc1ccccc1-c1cc2ccn(Cc3cc(-c4ccc(C(F)(F)F)cc4C(F)(F)F)no3)nc-2n1 | 77
Fc1ccccc1-c1cc2ncn(Cc3ccc(-c4ccc(C(F)(F)F)cc4C(F)(F)F)nn3)cc-2n1 | 100
COc1ccc(-c2nnc(Cn3ccc4cc(-c5ccccc5F)nc-4n3)s2)c(C(F)(F)F)c1 | 98.1
Fc1ccccc1-c1cc2ccn(Cc3ccc(-c4ccc(C(F)(F)F)cc4C(F)(F)F)nn3)nc-2n1 | 97.4
COc1ccc(-c2nnc(Cn3cnc4c(Br)c(-c5ccccc5F)nc-4c3)s2)c(C(F)(F)F)c1 | 100
COc1ccc(-c2nnc(Cn3cnc4c(C#Cc5cncnc5)c(-c5ccccc5F)nc-4c3)s2)c(C(F)(F)F)c1 | 97.8
COc1ccc(-c2nnc(Cn3cnc4c(Cl)c(-c5ccccc5F)nc-4c3)s2)c(C(F)(F)F)c1 | 100
COc1ccc(-c2nnc(Cn3cnc4c(C(N)=O)c(-c5ccccc5F)nc-4c3)s2)c(C(F)(F)F)c1 | 36.6
COc1ccc(-c2nnc(Cn3cnc4c(C#N)c(-c5ccccc5F)nc-4c3)s2)c(C(F)(F)F)c1 | 99.9
